According to the supplement of paper PMC10307832:

How the values were obtained:
Assay in all cases: relative viability (nuclei count vs DMSO), 5 days (fraction); higher = more cells survive
AZ3146 + Navitoclax = compound: CN1CCC(CC1)OC2=CC(=C(C=C2)NC3=NC=C4C(=N3)N(C(=O)N4C)C5CCCC5)OC [AZ3146] + CC1(C)CCC(c2ccc(Cl)cc2)=C(CN2CCN(c3ccc(C(=O)NS(=O)(=O)c4ccc(N[C@H](CCN5CCOCC5)CSc5ccccc5)c(S(=O)(=O)C(F)(F)F)c4)cc3)CC2)C1 [Navitoclax] (partner 0.5 µM)
How it was run: (§1)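 Relative viability equals treated-well nuclei counts divided by vehicle-well nuclei counts. Counts came from 4× images of lung cancer cell lines grown in 1536-well plates for 5 days after pin-tool dosing on the day after seeding. Dosing used one drug alone or a fixed anchor-drug dose plus five library-drug doses (not always all listed) in √10 steps, and values are medians of duplicate plates.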

GSK-J4 + Phenformin = compound: CCOC(=O)CCNc1cc(N2CCc3ccccc3CC2)nc(-c2ccccn2)n1 [GSK-J4] + N=C(N)NC(=N)NCCc1ccccc1 [Phenformin] (partner 250 µM)
How it was run: as §1

GSK-J4 + Trametinib = compound: CCOC(=O)CCNc1cc(N2CCc3ccccc3CC2)nc(-c2ccccn2)n1 [GSK-J4] + CC(=O)Nc1cccc(-n2c(=O)n(C3CC3)c(=O)c3c(Nc4ccc(I)cc4F)n(C)c(=O)c(C)c32)c1 [Trametinib] (partner 0.02 µM)
How it was run: as §1

GSK-J4 + Decitabine = compound: CCOC(=O)CCNc1cc(N2CCc3ccccc3CC2)nc(-c2ccccn2)n1 [GSK-J4] + Nc1ncn([C@H]2C[C@H](O)[C@@H](CO)O2)c(=O)n1 [Decitabine] (partner 2 µM)
How it was run: as §1

Cell Line	relative viability (AZ3146 + Navitoclax; first compound 0.08 µM)	relative viability (AZ3146 + Navitoclax; first compound 0.253 µM)	relative viability (AZ3146 + Navitoclax; first compound 0.8 µM)	relative viability (AZ3146 + Navitoclax; first compound 2.53 µM)	relative viability (AZ3146 + Navitoclax; first compound 8 µM)	relative viability (GSK-J4 + Phenformin; first compound 0.5 µM)	relative viability (GSK-J4 + Phenformin; first compound 5 µM)	relative viability (GSK-J4 + Phenformin; first compound 15.81 µM)	relative viability (GSK-J4 + Phenformin; first compound 50 µM)	relative viability (GSK-J4 + Trametinib; first compound 0.5 µM)	relative viability (GSK-J4 + Trametinib; first compound 1.581 µM)	relative viability (GSK-J4 + Trametinib; first compound 5 µM)	relative viability (GSK-J4 + Trametinib; first compound 15.81 µM)	relative viability (GSK-J4 + Trametinib; first compound 50 µM)	relative viability (GSK-J4 + Decitabine; first compound 0.5 µM)	relative viability (GSK-J4 + Decitabine; first compound 1.581 µM)	relative viability (GSK-J4 + Decitabine; first compound 5 µM)	relative viability (GSK-J4 + Decitabine; first compound 15.81 µM)	relative viability (GSK-J4 + Decitabine; first compound 50 µM)	relative viability (GSK-J4 + Phenformin; first compound 1.581 µM)
HCC-15	0.725	0.659	0.703	0.718	0.727	0.458	0.376	0.384	0.344	0.376	0.377	0.413	0.298	0.272	0.696	0.492	0.581	0.536	0.38	–
NCI-H1650	1.21	1.34	1.26	1.38	1.19	0.512	0.375	0.4	0.408	0.678	0.56	0.608	0.646	0.419	0.522	0.343	0.423	0.416	0.294	0.415
NCI-H1975	1.19	1.18	1.14	1.17	1.01	0.415	0.288	0.36	0.428	0.356	0.262	0.296	0.329	0.264	0.401	0.352	0.323	0.376	0.394	0.417
NCI-H727	0.501	0.476	0.431	0.436	0.413	0.566	0.791	0.589	0.441	0.405	0.393	0.378	0.385	0.331	0.856	0.753	0.904	0.87	0.611	0.76
COR-L23	1.05	1.08	0.984	1.03	0.923	0.412	–	0.39	0.393	0.461	0.576	–	0.544	0.429	0.393	0.384	–	0.386	0.352	0.408
LK-2	0.686	0.889	0.994	0.911	0.929	0.707	0.416	0.23	0.253	0.655	0.727	1.27	0.664	1.04	0.222	0.283	0.447	0.262	0.338	–
201T	1.19	1.2	1.16	1.27	1.2	0.444	0.374	0.384	0.352	0.719	0.615	0.711	0.735	0.69	0.826	0.886	0.847	0.831	0.875	0.479
